This is an account of results in ChEMBL document CHEMBL5291721, “A preclinical secondary pharmacology resource illuminates target-adverse drug reaction associations of marketed drugs” (Nat Commun, 2023).

Assay [1] has as its target T1, Bile acid receptor (Homo sapiens, UniProt Q96RI1).
T1 sequence (Q96RI1 whole entry): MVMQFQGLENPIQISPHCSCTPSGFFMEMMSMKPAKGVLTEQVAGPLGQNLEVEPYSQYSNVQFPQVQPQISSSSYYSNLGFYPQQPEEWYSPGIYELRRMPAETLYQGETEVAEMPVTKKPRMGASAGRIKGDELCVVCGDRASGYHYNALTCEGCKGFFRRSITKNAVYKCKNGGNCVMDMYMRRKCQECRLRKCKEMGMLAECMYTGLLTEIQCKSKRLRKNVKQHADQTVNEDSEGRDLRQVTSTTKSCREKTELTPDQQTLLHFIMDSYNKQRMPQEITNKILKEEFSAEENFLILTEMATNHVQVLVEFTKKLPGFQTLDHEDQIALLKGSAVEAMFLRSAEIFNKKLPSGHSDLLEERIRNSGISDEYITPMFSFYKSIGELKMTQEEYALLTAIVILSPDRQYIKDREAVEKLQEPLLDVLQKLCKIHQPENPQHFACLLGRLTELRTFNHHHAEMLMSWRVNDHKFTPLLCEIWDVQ
Type of assay: functional.

For assay [2], the target named is T2, Peroxisome proliferator-activated receptor alpha (Homo sapiens, UniProt Q07869).
T2 sequence (Q07869 whole entry): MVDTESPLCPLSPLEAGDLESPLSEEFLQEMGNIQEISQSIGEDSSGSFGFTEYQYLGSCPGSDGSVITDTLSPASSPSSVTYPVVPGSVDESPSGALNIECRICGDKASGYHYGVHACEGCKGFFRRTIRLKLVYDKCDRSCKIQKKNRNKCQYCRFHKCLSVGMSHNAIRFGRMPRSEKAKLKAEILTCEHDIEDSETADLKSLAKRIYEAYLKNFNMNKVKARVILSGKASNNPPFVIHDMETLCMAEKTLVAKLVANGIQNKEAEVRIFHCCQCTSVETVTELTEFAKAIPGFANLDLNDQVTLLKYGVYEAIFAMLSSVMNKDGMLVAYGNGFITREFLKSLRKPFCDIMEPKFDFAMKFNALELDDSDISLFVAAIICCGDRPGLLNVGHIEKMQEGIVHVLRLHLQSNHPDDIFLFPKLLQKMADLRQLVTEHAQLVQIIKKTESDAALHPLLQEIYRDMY
The class given is functional.

For assay [3], the target named is T3, Oxysterols receptor LXR-alpha (Homo sapiens, UniProt Q13133).
T3 sequence (Q13133 whole entry): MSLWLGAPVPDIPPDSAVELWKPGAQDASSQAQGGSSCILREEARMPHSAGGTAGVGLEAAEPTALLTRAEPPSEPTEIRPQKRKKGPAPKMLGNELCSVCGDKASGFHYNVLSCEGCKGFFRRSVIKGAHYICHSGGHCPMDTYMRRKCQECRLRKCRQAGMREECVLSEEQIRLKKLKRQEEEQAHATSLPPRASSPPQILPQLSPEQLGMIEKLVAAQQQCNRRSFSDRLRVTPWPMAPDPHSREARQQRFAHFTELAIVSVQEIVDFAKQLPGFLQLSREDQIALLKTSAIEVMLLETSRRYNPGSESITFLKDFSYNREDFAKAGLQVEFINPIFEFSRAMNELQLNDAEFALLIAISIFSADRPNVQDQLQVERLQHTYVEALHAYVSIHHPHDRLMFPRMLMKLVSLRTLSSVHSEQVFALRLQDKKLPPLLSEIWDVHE
The class given is functional.

Assay [4] concerns the target T4, Nuclear receptor subfamily 1 group I member 3 (Homo sapiens, UniProt Q14994).
T4 sequence (Q14994 whole entry): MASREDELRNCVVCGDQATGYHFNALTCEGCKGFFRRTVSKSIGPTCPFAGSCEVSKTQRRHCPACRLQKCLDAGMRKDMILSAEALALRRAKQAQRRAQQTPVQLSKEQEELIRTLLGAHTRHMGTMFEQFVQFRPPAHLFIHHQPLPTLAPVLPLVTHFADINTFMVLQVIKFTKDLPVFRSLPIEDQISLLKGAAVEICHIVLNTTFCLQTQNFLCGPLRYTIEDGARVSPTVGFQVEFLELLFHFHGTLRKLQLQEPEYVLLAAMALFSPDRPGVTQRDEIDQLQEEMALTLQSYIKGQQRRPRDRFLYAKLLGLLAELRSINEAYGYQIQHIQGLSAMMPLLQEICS
The class given is functional.

Assay [5] addresses T1, Bile acid receptor. The class given is functional. This is another data set of the same source.
For assay [6], the target named is T5, Oxysterols receptor LXR-beta (Homo sapiens, UniProt P55055).
T5 sequence (P55055 whole entry): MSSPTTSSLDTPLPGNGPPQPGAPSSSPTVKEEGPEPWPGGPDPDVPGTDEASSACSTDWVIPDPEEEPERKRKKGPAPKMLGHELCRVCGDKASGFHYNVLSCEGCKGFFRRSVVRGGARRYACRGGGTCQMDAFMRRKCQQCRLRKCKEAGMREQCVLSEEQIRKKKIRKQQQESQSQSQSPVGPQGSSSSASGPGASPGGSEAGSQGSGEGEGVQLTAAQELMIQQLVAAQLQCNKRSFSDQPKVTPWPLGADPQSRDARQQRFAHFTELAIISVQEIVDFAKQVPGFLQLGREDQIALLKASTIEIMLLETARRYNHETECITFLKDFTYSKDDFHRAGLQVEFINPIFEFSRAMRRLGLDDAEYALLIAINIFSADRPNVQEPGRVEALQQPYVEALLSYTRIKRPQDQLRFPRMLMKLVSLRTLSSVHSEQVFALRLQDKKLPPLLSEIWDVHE
Type of assay: functional.

Assay [7] concerns the target T6, Alpha-2A adrenergic receptor (Homo sapiens, UniProt P08913).
T6 sequence (P08913 whole entry): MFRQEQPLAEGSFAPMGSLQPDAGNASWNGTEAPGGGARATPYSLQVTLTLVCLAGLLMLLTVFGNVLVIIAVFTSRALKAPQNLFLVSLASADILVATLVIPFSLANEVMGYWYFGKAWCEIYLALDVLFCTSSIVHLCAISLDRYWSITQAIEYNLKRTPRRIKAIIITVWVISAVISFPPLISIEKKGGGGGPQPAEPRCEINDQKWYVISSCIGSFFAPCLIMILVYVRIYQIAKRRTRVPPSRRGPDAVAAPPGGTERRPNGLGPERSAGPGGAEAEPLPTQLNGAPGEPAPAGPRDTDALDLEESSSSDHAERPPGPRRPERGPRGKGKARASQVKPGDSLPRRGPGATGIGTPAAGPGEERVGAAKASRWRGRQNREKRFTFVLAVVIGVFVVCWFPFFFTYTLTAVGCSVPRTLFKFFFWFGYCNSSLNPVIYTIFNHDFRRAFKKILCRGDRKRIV

The target of assay [8] is Receptor tyrosine-protein kinase erbB-2 (Homo sapiens, UniProt P04626). The class given is functional.
Assay [9] deals with Rod cGMP-specific 3',5'-cyclic phosphodiesterase subunit alpha (Homo sapiens, UniProt P16499). Type of assay: functional.
Another assay addresses D(1B) dopamine receptor (Homo sapiens, UniProt P21918).

Each structure is given as a SMILES string. A value given as a limit tells only on which side of the number the result lay.
Note: assay procedure not described here.

Sequence of Receptor tyrosine-protein kinase erbB-2 (P04626 whole entry): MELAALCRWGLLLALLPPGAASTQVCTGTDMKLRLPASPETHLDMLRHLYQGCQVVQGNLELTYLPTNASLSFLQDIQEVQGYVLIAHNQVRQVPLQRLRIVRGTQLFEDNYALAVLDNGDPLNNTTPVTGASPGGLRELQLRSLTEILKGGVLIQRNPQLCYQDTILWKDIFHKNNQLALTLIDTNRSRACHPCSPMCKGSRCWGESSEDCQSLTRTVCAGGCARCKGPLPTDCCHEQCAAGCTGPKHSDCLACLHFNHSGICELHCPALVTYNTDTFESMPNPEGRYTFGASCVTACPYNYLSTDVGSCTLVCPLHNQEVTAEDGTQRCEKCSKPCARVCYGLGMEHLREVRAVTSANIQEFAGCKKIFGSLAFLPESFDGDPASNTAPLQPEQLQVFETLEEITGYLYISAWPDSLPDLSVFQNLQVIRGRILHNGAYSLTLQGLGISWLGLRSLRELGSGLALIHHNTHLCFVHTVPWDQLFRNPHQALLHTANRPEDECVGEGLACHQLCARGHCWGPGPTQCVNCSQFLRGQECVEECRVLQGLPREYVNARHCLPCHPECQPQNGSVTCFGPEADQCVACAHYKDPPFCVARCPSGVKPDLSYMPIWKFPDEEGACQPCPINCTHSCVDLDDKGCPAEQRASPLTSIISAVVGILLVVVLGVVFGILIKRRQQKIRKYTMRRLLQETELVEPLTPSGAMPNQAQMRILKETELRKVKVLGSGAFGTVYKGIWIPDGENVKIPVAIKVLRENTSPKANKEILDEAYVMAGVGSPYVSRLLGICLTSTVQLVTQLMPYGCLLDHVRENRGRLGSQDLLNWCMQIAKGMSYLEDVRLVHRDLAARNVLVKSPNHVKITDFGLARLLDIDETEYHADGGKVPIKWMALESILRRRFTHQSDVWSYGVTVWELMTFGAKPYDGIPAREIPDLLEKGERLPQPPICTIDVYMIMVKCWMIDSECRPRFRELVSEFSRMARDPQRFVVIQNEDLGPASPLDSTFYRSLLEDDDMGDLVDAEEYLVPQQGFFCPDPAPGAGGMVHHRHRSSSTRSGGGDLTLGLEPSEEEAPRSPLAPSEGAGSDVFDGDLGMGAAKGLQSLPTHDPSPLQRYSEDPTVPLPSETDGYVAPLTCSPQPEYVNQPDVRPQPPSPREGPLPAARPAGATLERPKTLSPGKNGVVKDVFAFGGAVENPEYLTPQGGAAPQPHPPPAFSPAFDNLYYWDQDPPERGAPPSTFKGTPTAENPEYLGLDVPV
Sequence of D(1B) dopamine receptor (P21918 whole entry): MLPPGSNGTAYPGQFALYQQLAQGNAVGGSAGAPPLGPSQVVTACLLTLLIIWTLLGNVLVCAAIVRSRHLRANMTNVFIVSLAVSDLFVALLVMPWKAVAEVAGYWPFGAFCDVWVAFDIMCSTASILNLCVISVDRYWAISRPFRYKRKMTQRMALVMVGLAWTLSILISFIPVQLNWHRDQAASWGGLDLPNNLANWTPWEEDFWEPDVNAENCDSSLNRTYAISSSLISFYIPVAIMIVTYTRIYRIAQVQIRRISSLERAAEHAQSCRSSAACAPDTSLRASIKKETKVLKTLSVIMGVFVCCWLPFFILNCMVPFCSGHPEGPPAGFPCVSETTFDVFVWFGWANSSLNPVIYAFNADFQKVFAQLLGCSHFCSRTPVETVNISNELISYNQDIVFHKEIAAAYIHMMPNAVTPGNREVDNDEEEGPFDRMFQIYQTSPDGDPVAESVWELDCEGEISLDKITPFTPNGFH
Sequence of Rod cGMP-specific 3',5'-cyclic phosphodiesterase subunit alpha (P16499 whole entry): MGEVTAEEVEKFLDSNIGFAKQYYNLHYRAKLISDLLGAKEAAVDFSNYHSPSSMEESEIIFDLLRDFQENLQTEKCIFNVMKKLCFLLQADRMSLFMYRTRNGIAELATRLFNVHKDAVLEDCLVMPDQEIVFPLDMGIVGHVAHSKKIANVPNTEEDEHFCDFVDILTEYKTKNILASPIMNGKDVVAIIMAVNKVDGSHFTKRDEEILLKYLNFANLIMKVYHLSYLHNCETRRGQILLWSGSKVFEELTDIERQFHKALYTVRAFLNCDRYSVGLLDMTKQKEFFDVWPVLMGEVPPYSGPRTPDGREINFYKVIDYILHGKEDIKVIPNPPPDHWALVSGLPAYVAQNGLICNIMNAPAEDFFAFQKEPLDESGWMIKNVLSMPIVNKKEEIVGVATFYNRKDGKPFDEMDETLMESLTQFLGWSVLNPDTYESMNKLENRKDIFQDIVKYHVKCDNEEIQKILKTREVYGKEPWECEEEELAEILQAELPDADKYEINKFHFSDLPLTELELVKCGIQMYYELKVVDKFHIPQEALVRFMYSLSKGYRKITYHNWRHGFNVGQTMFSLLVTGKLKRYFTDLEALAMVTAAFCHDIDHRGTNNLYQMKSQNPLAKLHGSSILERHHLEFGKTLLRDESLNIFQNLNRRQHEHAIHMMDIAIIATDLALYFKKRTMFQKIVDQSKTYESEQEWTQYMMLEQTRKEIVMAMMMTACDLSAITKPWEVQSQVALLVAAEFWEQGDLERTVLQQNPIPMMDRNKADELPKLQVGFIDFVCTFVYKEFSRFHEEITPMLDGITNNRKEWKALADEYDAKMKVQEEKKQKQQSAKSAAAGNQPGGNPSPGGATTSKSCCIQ

For the compound `COc1ccc2c(c1)C(=O)N(CCc1ccc(S(=O)(=O)NC(=O)NC3CCCCC3)cc1)C(=O)C2(C)C` [GLIQUIDONE], the AC50 (in general, the concentration at which the activity in the assay is half-maximal) on Bile acid receptor [1] is more than 30 µM; in [2], more than 30 µM; in assay [3] it was 6.3 µM; in assay [4], 4.8 µM; on Bile acid receptor [5] it was more than 30 µM; in [6] it was more than 30 µM. Take `Oc1ncnc2[nH]ncc12` [ALLOPURINOL]: the AC50 in [7] is more than 30 µM. In assay [8], `CO/N=C(\C(=O)N[C@@H]1C(=O)N2C(C(=O)[O-])=C(C[N+]3(C)CCCC3)CS[C@H]12)c1csc(N)n1` had an AC50 of more than 300 µM. `C#C[C@]1(O)CC[C@H]2[C@@H]3CCc4cc(O)ccc4[C@H]3CC[C@@]21C` [ETHINYL ESTRADIOL] displayed an AC50 in assay [2] of more than 30 µM. As to `CC(C)C(=O)Nc1ccc([N+](=O)[O-])c(C(F)(F)F)c1` [FLUTAMIDE], the AC50 in assay [7] is more than 30 µM. For `NS(=O)(=O)c1cc2c(cc1Cl)NCNS2(=O)=O` [HYDROCHLOROTHIAZIDE], the AC50 (in assay [9]; at D(1B) dopamine receptor) was more than 10 µM throughout. In assay [8], `COC(=O)[C@@H]1CC2=CC(=O)CC[C@]2(C)[C@@]23O[C@@H]2C[C@@]2(C)[C@@H](CC[C@@]24CCC(=O)O4)[C@H]13` [EPLERENONE] showed an AC50 of more than 30 µM.

Regarding `NC(N)=Nc1nc(CSCCC(N)=NS(N)(=O)=O)cs1` [FAMOTIDINE], the AC50 (in assay [9]; on D(1B) dopamine receptor) was more than 10 µM each time. `NC(=O)c1cnccn1` [PYRAZINAMIDE]: the AC50 in assay [7] was more than 30 µM. `Nc1nc(N)c2nc(-c3ccccc3)c(N)nc2n1`: the AC50 in assay [9] is more than 10 µM; in assay [7], more than 30 µM; on D(1B) dopamine receptor, more than 10 µM. As for `CC(C)Cc1ccc(CC(=O)O)cc1` [IBUFENAC], the AC50 in assay [8] was more than 30 µM. In the case of `O=C(NC[C@H]1CN(c2ccc(N3CCOCC3=O)cc2)C(=O)O1)c1ccc(Cl)s1` [RIVAROXABAN], the AC50 in [2] is more than 30 µM. In the case of `Cc1ccc(C(=O)c2cc(O)c(O)c([N+](=O)[O-])c2)cc1` [TOLCAPONE], the AC50 in assay [4] is 13 µM. On to `CCOC(=O)[C@H](CCc1ccccc1)N[C@@H](C)C(=O)N1CCC[C@H]1C(=O)O`, for which the AC50 (in [9]; on D(1B) dopamine receptor) was more than 10 µM throughout. Turning to `CC(C)NNC(=O)c1ccncc1` [IPRONIAZID], in assay [8], the AC50 is more than 30 µM.
